Numbers after ± are expanded uncertainties.
Conditions: Hot wire method

F/C=C/C(F)(F)F [trans-1,3,3,3-tetrafluoropropene]
Conditions	thermal conductivity [W/m/K]
312.25 K, 581 kPa, Gas	0.01478 ± 0.0005
312.31 K, 325 kPa, Gas	0.01497 ± 0.0005
312.4 K, 200 kPa, Gas	0.01456 ± 0.00049
312.41 K, 431 kPa, Gas	0.01481 ± 0.0005
312.43 K, 101 kPa, Gas	0.0144 ± 0.0005
312.48 K, 326 kPa, Gas	0.01471 ± 0.0005
312.57 K, 582 kPa, Gas	0.01477 ± 0.0005
312.62 K, 200 kPa, Gas	0.0149 ± 0.0005
312.73 K, 430 kPa, Gas	0.01467 ± 0.0005
312.8 K, 102 kPa, Gas	0.01504 ± 0.00051
312.83 K, 325 kPa, Gas	0.01474 ± 0.0005
312.92 K, 584 kPa, Gas	0.01483 ± 0.0005
312.98 K, 200 kPa, Gas	0.01488 ± 0.0005
313.1 K, 428 kPa, Gas	0.01481 ± 0.0005
313.2 K, 102 kPa, Gas	0.01509 ± 0.00051
313.2 K, 325 kPa, Gas	0.01472 ± 0.0005
313.27 K, 585 kPa, Gas	0.01483 ± 0.0005
313.39 K, 200 kPa, Gas	0.01487 ± 0.0005
313.49 K, 429 kPa, Gas	0.01476 ± 0.0005
313.6 K, 325 kPa, Gas	0.01477 ± 0.0005
313.64 K, 102 kPa, Gas	0.01508 ± 0.00051
313.67 K, 586 kPa, Gas	0.01487 ± 0.0005
313.81 K, 200 kPa, Gas	0.01496 ± 0.0005
313.88 K, 428 kPa, Gas	0.01479 ± 0.0005
314.02 K, 325 kPa, Gas	0.01482 ± 0.0005
314.08 K, 101 kPa, Gas	0.01511 ± 0.00051
314.25 K, 200 kPa, Gas	0.01496 ± 0.0005
314.56 K, 101 kPa, Gas	0.01518 ± 0.00051
320.95 K, 10241 kPa, Liquid	0.07419 ± 0.00082
320.95 K, 15330 kPa, Liquid	0.07758 ± 0.00086
321 K, 1074 kPa, Liquid	0.06717 ± 0.00076
321 K, 15328 kPa, Liquid	0.07747 ± 0.00086
321 K, 15398 kPa, Liquid	0.07709 ± 0.00085
321 K, 21637 kPa, Liquid	0.08122 ± 0.00089
321.01 K, 5363 kPa, Liquid	0.07064 ± 0.00079
321.01 K, 10238 kPa, Liquid	0.07408 ± 0.00082
321.06 K, 1073 kPa, Liquid	0.06692 ± 0.00075
321.06 K, 15400 kPa, Liquid	0.07715 ± 0.00085
321.06 K, 21630 kPa, Liquid	0.08106 ± 0.00089
321.08 K, 5360 kPa, Liquid	0.07051 ± 0.00078
321.23 K, 96 kPa, Gas	0.01565 ± 0.00053
321.24 K, 193 kPa, Gas	0.01579 ± 0.00053
321.26 K, 302 kPa, Gas	0.01598 ± 0.00054
321.31 K, 15324 kPa, Liquid	0.07738 ± 0.00087
321.32 K, 10235 kPa, Liquid	0.07406 ± 0.00083
321.34 K, 21627 kPa, Liquid	0.08112 ± 0.00089
321.35 K, 1071 kPa, Liquid	0.06648 ± 0.00075
321.36 K, 15404 kPa, Liquid	0.0766 ± 0.00088
321.37 K, 5451 kPa, Liquid	0.07074 ± 0.00079
321.39 K, 15326 kPa, Liquid	0.07727 ± 0.00086
321.4 K, 5358 kPa, Liquid	0.07043 ± 0.00078
321.42 K, 10233 kPa, Liquid	0.07383 ± 0.00082
321.43 K, 1070 kPa, Liquid	0.06675 ± 0.00075
321.43 K, 21621 kPa, Liquid	0.08087 ± 0.00089
321.44 K, 5449 kPa, Liquid	0.07064 ± 0.00079
321.45 K, 96 kPa, Gas	0.01549 ± 0.00052
321.45 K, 15400 kPa, Liquid	0.07716 ± 0.00085
321.46 K, 193 kPa, Gas	0.01564 ± 0.00053
321.48 K, 301 kPa, Gas	0.01576 ± 0.00053
321.5 K, 5355 kPa, Liquid	0.07013 ± 0.00078
321.69 K, 96 kPa, Gas	0.01537 ± 0.00052
321.69 K, 193 kPa, Gas	0.01553 ± 0.00052
321.69 K, 301 kPa, Gas	0.01571 ± 0.00053
321.73 K, 15326 kPa, Liquid	0.07718 ± 0.00085
321.74 K, 21616 kPa, Liquid	0.08084 ± 0.00089
321.76 K, 10233 kPa, Liquid	0.07335 ± 0.00081
321.77 K, 1068 kPa, Liquid	0.06659 ± 0.00075
321.77 K, 5449 kPa, Liquid	0.07051 ± 0.00078
321.77 K, 15389 kPa, Liquid	0.07714 ± 0.00086
321.85 K, 15325 kPa, Liquid	0.077 ± 0.00086
321.85 K, 21616 kPa, Liquid	0.08065 ± 0.00089
321.86 K, 5352 kPa, Liquid	0.07024 ± 0.00078
321.87 K, 1067 kPa, Liquid	0.06647 ± 0.00074
321.87 K, 5446 kPa, Liquid	0.07039 ± 0.00078
321.88 K, 10232 kPa, Liquid	0.07374 ± 0.00082
321.89 K, 15379 kPa, Liquid	0.07673 ± 0.00085
321.93 K, 96 kPa, Gas	0.01526 ± 0.00051
321.93 K, 301 kPa, Gas	0.0156 ± 0.0005
321.94 K, 193 kPa, Gas	0.01541 ± 0.00052
321.94 K, 862 kPa, Gas	0.01585 ± 0.00053
321.98 K, 5353 kPa, Liquid	0.07002 ± 0.00078
322.01 K, 717 kPa, Gas	0.01564 ± 0.00053
322.18 K, 301 kPa, Gas	0.01554 ± 0.00052
322.19 K, 193 kPa, Gas	0.01534 ± 0.00052
322.19 K, 21613 kPa, Liquid	0.0806 ± 0.00089
322.2 K, 15324 kPa, Liquid	0.07701 ± 0.00087
322.23 K, 861 kPa, Gas	0.01583 ± 0.00053
322.24 K, 5447 kPa, Liquid	0.07031 ± 0.00078
322.25 K, 432 kPa, Gas	0.01554 ± 0.00052
322.25 K, 1068 kPa, Liquid	0.06595 ± 0.00074
322.25 K, 10235 kPa, Liquid	0.0737 ± 0.00082
322.25 K, 15372 kPa, Liquid	0.07646 ± 0.00086
322.27 K, 889 kPa, Gas	0.01589 ± 0.00053
322.32 K, 715 kPa, Gas	0.01567 ± 0.00053
322.32 K, 21607 kPa, Liquid	0.08044 ± 0.00089
322.34 K, 302 kPa, Gas	0.01575 ± 0.00053
322.34 K, 15322 kPa, Liquid	0.0768 ± 0.00086
322.35 K, 5442 kPa, Liquid	0.07009 ± 0.00078
322.37 K, 5357 kPa, Liquid	0.07003 ± 0.00078
322.38 K, 1067 kPa, Liquid	0.06625 ± 0.00074
322.4 K, 10234 kPa, Liquid	0.07347 ± 0.00082
322.48 K, 588 kPa, Gas	0.01563 ± 0.00053
322.52 K, 5368 kPa, Liquid	0.06983 ± 0.00078
322.55 K, 859 kPa, Gas	0.01582 ± 0.00053
322.57 K, 432 kPa, Gas	0.01556 ± 0.00052
322.58 K, 886 kPa, Gas	0.01586 ± 0.00053
322.65 K, 713 kPa, Gas	0.01571 ± 0.00053
322.69 K, 301 kPa, Gas	0.01554 ± 0.00052
322.7 K, 21605 kPa, Liquid	0.08035 ± 0.00089
322.73 K, 15322 kPa, Liquid	0.07671 ± 0.00085
322.75 K, 5443 kPa, Liquid	0.07003 ± 0.00079
322.79 K, 1065 kPa, Liquid	0.06618 ± 0.00074
322.8 K, 10233 kPa, Liquid	0.07327 ± 0.00081
322.81 K, 193 kPa, Gas	0.01577 ± 0.00053

Conditions	thermal conductivity [W/m/K]
313.15 K, Liquid	0.06932 ± 0.00048

Source: the NIST ThermoML archive (doi:10.1021/je200811n)
